According to patent US10703756B2, “Pyrrolo[2,3-D]pyrimidinyl, pyrrolo[2,3-B]pyrazinyl, pyrrolo[2,3-B]pyridinyl acrylamides and epoxides thereof” (Pfizer Inc., priority 2015, dated 2020):

Columns and labels:
[1] = target: T1, JAK3 enzyme (Homo sapiens, UniProt P52333); assay: JAK Caliper Enzyme Assay at 4 μM ATP; format: biochemical
T1 sequence (P52333 1-1124): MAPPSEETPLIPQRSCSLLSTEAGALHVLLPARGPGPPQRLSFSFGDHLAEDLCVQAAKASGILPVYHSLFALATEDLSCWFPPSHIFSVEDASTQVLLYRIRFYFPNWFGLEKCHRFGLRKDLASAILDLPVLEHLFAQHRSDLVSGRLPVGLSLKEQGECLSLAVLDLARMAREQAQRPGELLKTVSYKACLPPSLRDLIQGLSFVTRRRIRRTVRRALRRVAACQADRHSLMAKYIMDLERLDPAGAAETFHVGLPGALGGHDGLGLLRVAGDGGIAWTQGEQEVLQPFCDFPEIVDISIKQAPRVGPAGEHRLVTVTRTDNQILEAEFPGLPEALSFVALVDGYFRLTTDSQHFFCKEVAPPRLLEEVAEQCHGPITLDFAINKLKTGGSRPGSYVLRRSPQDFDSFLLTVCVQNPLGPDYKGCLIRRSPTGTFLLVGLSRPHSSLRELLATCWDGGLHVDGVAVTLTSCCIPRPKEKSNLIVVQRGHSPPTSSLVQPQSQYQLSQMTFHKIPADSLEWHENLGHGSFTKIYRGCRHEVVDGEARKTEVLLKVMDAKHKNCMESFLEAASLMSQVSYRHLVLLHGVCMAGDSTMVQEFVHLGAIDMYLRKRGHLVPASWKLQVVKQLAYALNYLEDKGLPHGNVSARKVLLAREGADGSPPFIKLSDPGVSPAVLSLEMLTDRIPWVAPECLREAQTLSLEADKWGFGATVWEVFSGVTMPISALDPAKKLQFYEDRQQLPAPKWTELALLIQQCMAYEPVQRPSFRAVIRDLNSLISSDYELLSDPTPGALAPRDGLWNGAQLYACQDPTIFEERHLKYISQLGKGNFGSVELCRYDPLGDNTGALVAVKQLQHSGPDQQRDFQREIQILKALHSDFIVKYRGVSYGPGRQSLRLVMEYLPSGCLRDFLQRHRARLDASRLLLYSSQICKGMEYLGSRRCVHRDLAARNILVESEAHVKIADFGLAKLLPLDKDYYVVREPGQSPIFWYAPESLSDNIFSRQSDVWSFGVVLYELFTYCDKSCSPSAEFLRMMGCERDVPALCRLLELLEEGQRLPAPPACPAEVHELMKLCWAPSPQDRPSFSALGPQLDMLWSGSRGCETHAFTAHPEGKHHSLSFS
How it was run: (§1)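 Substrate conversion was kept within 20%-30% by adjusting enzyme and incubation for every preparation; peptide phosphorylation was quantified via on-chip mobility shift.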

[2] = test system: IL-15 induced STAT5 phosphorylation in human whole blood lymphocytes; assay: HWB IL-15 Induced STAT5 Phosphorylation Assay; format: cell-based; settings: Lymphocyte, IL-15 final 50 ng/ml, read-out: HWB_IL15 pSTAT5 IC50
Experimental: HWB IL-15 Induced STAT5 Phosphorylation Assay
After serial dilution of the test compounds 1:2 in DMSO at desired concentration (500× of final), the compounds were further diluted in PBS (by adding 4 μL compound/DMSO in 96 μL PBS, [DMSO]=4%, 20× final). To 96-well polypropylene plates were added 90 μl HWB (heparin treated Human Whole Blood)/well, followed by 5 μl/well 4% DMSO in D-PBS or various concentrations of 20× inhibitor in 4% DMSO in D-PBS (w/o Ca^+2 or Mg^+2) to give 1× in 0.2% DMSO. After mixing and incubating for 45 minutes at 37° C., 5 μl D-PBS (unstimulated control) or 20× stocks of 5 μl human IL-15 (final concentration is 50 ng/ml) were added, and mixed three times. After incubating 15 minutes at 37° C., 1× Lyse/Fix Buffer (BD Phosflow 5× Lyse/Fix Buffer) was added to all wells at 1000 μl/well, then incubated for 20 minutes at 37° C. and spun 5 mins at 1200 rpm. After washing in 1000 μl FACS buffer 1× and spinning for 5 mins at 1200 rpm, 400 μl ice cold Perm Buffer III were added to each well. After mixing gently (1-2×) and incubating on ice for 30 minutes, spinning for 5 mins at 1200 rpm without interruption, and washing 1× in cold […] FACS buffer (D-PBS containing 0.1% BSA and 0.1% sodium azide) 250 μl/well of the desired AlexaFluor647-conjugated anti-phospho STATS antibody at 1:125 dilution in FACS buffer was added. Following incubating at 4° C. over night, all the samples were transferred to 96-well polypropylene U-bottom plate, and checked by flow cytometry gated on total lymphocytes.

[3] = test system: IL-15 induced P-STAT5 in human PBMC; assay: PBMC IL-15 Induced P-STAT5; format: cell-based; settings: human PBMC, IL-15 final 41 ng/mL; read-out: PBMC IL15_pSTAT5_IC50
How it was run: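 Flow cytometry gated on total lymphocytes measured STAT5 staining (Alexa Fluor 647 antibody, overnight, 4 °C) in fixed, methanol-permeabilised human PBMC. Cells had received compound for 15 min at 37 °C (0.2% DMSO final), followed by 41 ng/mL final human IL-15 for 15 min.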

[4] = target: T1, JAK3 enzyme; assay: JAK Caliper Enzyme Assay at 1 mM ATP; format: biochemical
How it was run: as §1

Row | IC50 [1] [nM] | IC50 [2] [nM] | IC50 [4] [nM] | SMILES | IC50 [3] [nM]
1 | 0.372 | 542 | 6 | C=CC(=O)N1CCC(Nc2cnc3[nH]cc(C(=O)NCc4scnc4C(F)(F)F)c3n2)CC1 [Example 185, 2-[(1-acryloylpiperidin-4-yl)amino]-N-{[4-(trifluoromethyl)-1,3-thiazol-5-yl]methyl}-5H-pyrrolo[2,3-b]pyrazine-7-carboxamide] | 73
2 | 0.368 | 1730 | 13 | C=CC(=O)N1CCC(Nc2cnc3[nH]cc(C(=O)NCc4ccc(F)c(OC)c4)c3n2)CC1 [Example 174, 2-[(1-acryloylpiperidin-4-yl)amino]-N-(4-fluoro-3-methoxybenzyl)-5H-pyrrolo[2,3-b]pyrazine-7-carboxamide] | 162

More lines, now with the values behind:

Row | SMILES | IC50 [1] [nM] | IC50 [2] [nM] | IC50 [4] [nM] | IC50 [3] [nM]
3 | C=CC(=O)N1CC[C@@H](Nc2cnc3[nH]cc(C(=O)N[C@@H]4C[C@H]4C(F)(F)F)c3n2)[C@@H](OC)C1 [Example 316, 2-{[(3S,4R)-1-acryloyl-3-methoxypiperidin-4-yl]amino}-N-[(1R,2R)-2-(trifluoromethyl)cyclopropyl]-5H-pyrrolo[2,3-b]pyrazine-7-carboxamide] | 0.643 | 1450 | 129 | 294
4 | C=CC(=O)N1CCN(c2cnc3[nH]cc(C(=O)NC4CC(F)(F)C4)c3n2)CC1 [Example 283, 2-(4-acryloylpiperazin-1-yl)-N-(3,3-difluorocyclobutyl)-5H-pyrrolo[2,3-b]pyrazine-7-carboxamide] | 0.509 | 1200 | 97 | 257
5 | C=CC(=O)N1CC[C@@H](Nc2cnc3[nH]cc(C(=O)NCC4CCCC4)c3n2)[C@@H](OC)C1 [Example 313, 2-{[(3S,4R)-1-acryloyl-3-methoxypiperidin-4-yl]amino}-N-(cyclopentylmethyl)-5H-pyrrolo[2,3-b]pyrazine-7-carboxamide] | 0.736 | 986 | 46 | 243
6 | C=CC(=O)N1CCN(c2cnc3[nH]cc(C(=O)N[C@H](CC)CC#N)c3n2)CC1(C)C [Example 318, 2-(4-acryloyl-3,3-dimethylpiperazin-1-yl)-N-[(2R)-1-cyanobutan-2-yl]-5H-pyrrolo[2,3-b]pyrazine-7-carboxamide] | 0.535 | 1760 | 59 | 214
